From a compilation of properties of binary mixtures (doi:10.1021/acs.jpcb.6b06974)

Assay: xn = mol fraction of the nth substance listed
Conditions: 101 kPa

## CCCCCC[n+]1ccn(C)c1.O=S(=O)([N-]S(=O)(=O)C(F)(F)F)C(F)(F)F + ClC(Cl)Cl
288.5 K, x1 = 0.018
  electrical conductivity: 0.021 S/m
288.5 K, x1 = 0.137
  electrical conductivity: 0.302 S/m
288.5 K, x1 = 0.297
  electrical conductivity: 0.46 S/m
288.5 K, x1 = 0.604
  electrical conductivity: 0.255 S/m
288.5 K, x1 = 0.713
  electrical conductivity: 0.211 S/m
288.5 K, x1 = 0.848
  electrical conductivity: 0.169 S/m
288.5 K, x1 = 0.911
  electrical conductivity: 0.153 S/m
288.5 K, x2 = 0.014
  electrical conductivity: 0.137 S/m
298.2 K, x1 = 0.034
  electrical conductivity: 0.076 S/m
298.2 K, x1 = 0.167
  electrical conductivity: 0.477 S/m
298.2 K, x1 = 0.256
  electrical conductivity: 0.582 S/m
298.2 K, x1 = 0.379
  electrical conductivity: 0.524 S/m
298.2 K, x1 = 0.562
  electrical conductivity: 0.369 S/m
298.2 K, x1 = 0.732
  electrical conductivity: 0.295 S/m
298.2 K, x1 = 0.87
  electrical conductivity: 0.245 S/m
298.2 K, x1 = 0.924
  electrical conductivity: 0.233 S/m
298.2 K, x1 = 0.962
  electrical conductivity: 0.221 S/m
298.2 K, x2 = 0.008
  electrical conductivity: 0.213 S/m
308.2 K, x1 = 0.019
  electrical conductivity: 0.04 S/m
308.2 K, x1 = 0.123
  electrical conductivity: 0.501 S/m
308.2 K, x1 = 0.214
  electrical conductivity: 0.686 S/m
308.2 K, x1 = 0.318
  electrical conductivity: 0.701 S/m
308.2 K, x1 = 0.4
  electrical conductivity: 0.652 S/m
308.2 K, x1 = 0.585
  electrical conductivity: 0.431 S/m
308.2 K, x1 = 0.807
  electrical conductivity: 0.378 S/m
308.2 K, x1 = 0.905
  electrical conductivity: 0.327 S/m
308.2 K, x1 = 0.949
  electrical conductivity: 0.336 S/m
308.2 K, x2 = 0.015
  electrical conductivity: 0.326 S/m
318.5 K, x1 = 0.03
  electrical conductivity: 0.072 S/m
318.5 K, x1 = 0.2
  electrical conductivity: 0.785 S/m
318.5 K, x1 = 0.247
  electrical conductivity: 0.835 S/m
318.5 K, x1 = 0.446
  electrical conductivity: 0.788 S/m
318.5 K, x1 = 0.684
  electrical conductivity: 0.55 S/m
318.5 K, x1 = 0.815
  electrical conductivity: 0.529 S/m
318.5 K, x1 = 0.92
  electrical conductivity: 0.479 S/m
